Test results reported in US20250262167A1, “COMPOUNDS, TARGETS AND PATHWAYS FOR MACROPHAGE MODULATION” (Massachusetts Institute of Technology, priority 2020, published 2025).
Counter-ions that a name gives are not always drawn.

Assays:
[1] = tested on: human monocyte-derived macrophages (hMDMs); test: High throughput phenotypic screen of macrophage activation (cell shape, Z-score); assay type: cell-based; design: key to Average Z-value: Z-score vs DMSO; negative = round cells, positive = elongated; conditions: for activation state induced in the screen: compounds regulating actin-cytoskeleton; for cell shape induced: known M1-/M2-activating stimuli;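 for all read-outs here: phalloidin and DAPI stained hMDMs imaged by high-content microscopy, cell eccentricity compared with DMSO control by T-test, round morphology scored negative, elongated positive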
[2] = tested on: hMDMs differentiated into M2 by IL-4 plus IL-13; test: Reprogramming screen and dosage response on M2-like differentiated macrophages; conditions: for EC (M1 Z-score cutoff): Homo sapiens, Macrophage, 24 h, read-out: EC; for EC: M1-activating compounds on M2-like macrophages (IL-4 plus IL-13), EC = concentration reaching Z-score cutoff; for Category: differentiated macrophages;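 for all read-outs here: human monocyte-derived macrophages held 24 h in 5 ng/mL IL-4 plus IL-13 before 24 h compound exposure, with cell shape measured from images in 384-well plates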
Method: Shown are comparison of Z-scores between 5 μM or 10 μM of compounds. […] Shown are comparison of Z-scores between 5 μM or 10 μM of compounds. […] EC and fitness of 21 M1-polarizing (triangle) and 19 M2-polarizing compounds (circle) were calculated by the Michaelis-Menten equation and plotted. Data were summarized from 3 independent experiments.
(§1) Human macrophages were seeded into optical 384-well plates. Sixteen hours later, medium in M1 plates were replaced by M1 differentiating medium (complete RPMI with 50 ng/mL IFNγ and 50 ng/mL TNFα) and medium in M2 plates by M2 differentiating medium (complete RPMI with 5 ng/mL IL-4 and 5 ng/mL IL-13). After 24 hrs cell differentiation, M1 plates (M1 macrophages) and M2 plates (M2 macrophages) were treated with M2-activating compounds and M1-activating compounds respectively for 24 hrs. Two independent experiments were performed with or without replacing differentiating medium right before treatment. Cell imaging and analysis were performed as indicated above.
To investigate whether the identified compounds could reprogram or reactivate macrophages after M1- or M2-like differentiation, we rescreened the hits on M1- or M2-activated macrophages. hMDMs were activated into M2-like macrophages by IL-4 plus IL-13 or M1-like macrophages by IFNγ plus TNFα. After removing the differentiating cytokines, M2-like macrophages were treated with each of the 166 M1-activating compounds and M1-like macrophages were treated with each of the 180 M2-activating compounds at a final concentration of either 5 μM and 10 μM. 24 hours later, cell images were taken and cell shapes were quantified. […] Dosage responses were carried out with 40 commercial available compounds (21 M1-activating and 19 M2-activating) on polarized macrophages.
(§2) We also rescreened the hits on differentiated macrophages in the presence of differentiating cytokines: either IL-4 plus IL-13 or IFNγ plus TNFα.

[3] = tested on: hMDMs differentiated into M1 by IFNγ plus TNFα; test: Reprogramming screen and dosage response on M1-like differentiated macrophages; assay type: cell-based, human; conditions: for EC (M2 Z-score cutoff): M2-activating compounds on M1-like macrophages (IFNγ plus TNFα), EC = concentration reaching Z-score cutoff; for Category: differentiated macrophages
Method: Data were summarized from 3 independent experiments.
as §1
To investigate whether the identified compounds could reprogram or reactivate macrophages after M1- or M2-like differentiation, we rescreened the hits on M1- or M2-activated macrophages. hMDMs were activated into M2-like macrophages by IL-4 plus IL-13 or M1-like macrophages by IFNγ plus TNFα. […] 24 hours later, cell images were taken and cell shapes were quantified.
as §2

[4] = cell shape Z-score of hMDMs treated with compound at 20 µM for 24 hours, averaged over the compounds listed for the WikiPathways pathway, negative = M1-like, positive = M2-like
[5] = cell shape Z-score of hMDMs averaged over the compounds listed for the Wiki pathway, compounds at 20 µM for 24 hours, positive values = M2-like
[6] = average cell-shape Z-score of the listed compounds whose targets fall in the Wiki pathway, hMDMs, 20 µM, 24 hours, M1-activating compounds (negative Z)

O=C1Nc2ccccc2C2=NC(CN3CCN(c4ccccc4)CC3)CN12 (stereo not shown)
Average Z-value [1, 4]: −9.21

COc1c(C)c2c(c(O)c1C/C=C(\C)CCC(=O)O)C(=O)OC2 [Mycophenolic acid]
Average Z-value [1, 4]: −4.54

O=C(Nc1ccc([N+](=O)[O-])cc1Cl)c1cc(Cl)ccc1O [Niclosamide]
EC (M1 Z-score cutoff) [2]: 1.13 µM

CC[C@@H]1/C=C/C=C/C[C@H](C)[C@H](O)[C@](C)(O)C(=O)[C@H](C)[C@@H](O)[C@H](C)C(=O)[C@H](C)[C@@H](O)[C@H](C)/C=C/C(=O)O[C@H]2[C@@H](C)[C@@H](CC1)O[C@@]1(CC[C@@H](C)[C@@H](C[C@H](C)O)O1)[C@@H]2C [oligomycin A]
Average Z-value [1, 5]: 7.16

C=C1[C@@H](C)[C@H]2[C@H](Cc3ccccc3)NC(=O)[C@]23OC(=O)/C=C/[C@H](O)CCC[C@@H](C)C/C=C/[C@H]3[C@@H]1O [cytochalasin B]
Average Z-value [1, 4]: −20.00

CN(C)CCC=C1c2ccccc2COc2ccccc21 [Doxepine HCl]
Average Z-value [1, 5]: 6.87

CC(C)(C)n1nc(-c2cccc3ccccc23)c2c(N)ncnc21 [1-Naphthyl PP1]
EC (M2 Z-score cutoff) [3]: 2.072 µM | Category [3]: M2 (6 for M2-activated macrophages)

CC(C)[C@]12O[C@H]1[C@@H]1O[C@]13[C@]1(O[C@H]1C[C@H]1C4=C(CC[C@@]13C)C(=O)OC4)[C@@H]2O [triptolide]
EC (M2 Z-score cutoff) ([3]; Homo sapiens, Macrophage, 24 h): 0.0619 µM

COc1cc(Nc2c(C#N)cnc3cc(OCCCN4CCN(C)CC4)c(OC)cc23)c(Cl)cc1Cl [Bostunib]
EC (M2 Z-score cutoff) ([3]; Homo sapiens, Macrophage, 24 h): 0.164 µM

CCOc1nc2cccc(C(=O)OC(C)OC(=O)OC3CCCCC3)c2n1Cc1ccc(-c2ccccc2-c2nn[nH]n2)cc1 (stereo not shown) [CANDESARTAN CILEXTIL]
Average Z-value [1, 4]: −4.32

CCC[C@H](NC(=O)/C(C#N)=C/c1cccc(Br)n1)c1ccccc1 [WP1130]
EC [2]: 15 µM | Category [2]: M1 (−4 for M1-activated macrophages)

Cl.Cl.O=S(=O)(NCCNC/C=C/c1ccc(Br)cc1)c1cccc2cnccc12 [H 89 dihydrochloride]
Average Z-value [1, 5]: 7.14

COc1cc(C(=O)N2CCC(N3CCN(C)CC3)CC2)ccc1Nc1ncc2c(n1)N(C)c1ccccc1C(=O)N2C [LRRK2-IN-1]
Average Z-value [1, 5]: 8.88

O=C1Cc2c([nH]c3ccc([N+](=O)[O-])cc23)-c2ccccc2N1 [Alsterpaullone]
Average Z-value [1, 5]: 12.55

CCCCc1ccc2[nH]c(NC(=O)OC)nc2c1 [parbendazole]
activation state induced in the screen [1]: M1-activating

CC1=C(/C=C/C(C)=C/C=C/C(C)=C/C(=O)O)C(C)(C)CCC1 [Retinoic acid]
Average Z-value [1, 5]: 6.86

CCC[C@H](N[C@@H](C)C(=O)N1[C@H](C(=O)O)C[C@@H]2CCCC[C@@H]21)C(=O)OCC [PERINDOPRIL ERBUMINE]
Average Z-value [1, 5]: 7.27

CNC(=O)c1cc(Oc2ccc(NC(=O)Nc3ccc(Cl)c(C(F)(F)F)c3)cc2)ccn1 [Sorafenib]
EC (M2 Z-score cutoff) ([3]; Homo sapiens, Macrophage, 24 h): 0.794 µM

CNC(=O)c1ccccc1Sc1ccc2c(/C=C/c3ccccn3)n[nH]c2c1 [Axitinib]
EC (M2 Z-score cutoff) ([3]; Homo sapiens, Macrophage, 24 h): 0.591 µM

COc1ccc(S(=O)(=O)N(C(C)=O)c2ccccc2/C=C/c2cc[n+]([O-])cc2)cc1 [HMN214]
EC (M1 Z-score cutoff) [2]: 1.48 µM

TNFα
cell shape induced [1]: round shape

C=C1[C@@H](C)[C@H]2[C@H](Cc3ccccc3)NC(=O)[C@]23OC(=O)/C=C/[C@H](O)CCC[C@@H](C)C/C=C/[C@H]3[C@@H]1O [cytochalasin-B]
activation state induced in the screen [1]: M1-activating

Cc1oc(=O)oc1CN1CCN(c2cc3c(cc2F)c(=O)c(C(=O)O)c2n3C(C)S2)CC1 (stereo not shown) [Prulifloxacin]
EC (M1 Z-score cutoff) [2]: 15 µM

CCCS(=O)(=O)Nc1ccc(F)c(C(=O)c2c[nH]c3ncc(-c4ccc(Cl)cc4)cc23)c1F [Vemurafenib]
Average Z-value [1, 4]: −8.55

lipopolysaccharide [LPS]
cell shape induced [1]: round shape

COc1cc2c(cc1OC)[C@@H]1C(=O)c3ccc4c(c3O[C@@H]1CO2)C[C@H](C(C)C)O4 [DIHYDROROTENONE]
Average Z-value [1, 4]: −5.14

IL13: classic M2 stimulus
cell shape induced [1]: elongated cell shape

Cc1nc(Nc2[nH]nc3c2CN(C(=O)N[C@H](CN(C)C)c2ccccc2)C3(C)C)c2sccc2n1 [PF-3758309]
Average Z-value [1, 4]: −4.29

Cc1onc(-c2ccccc2)c1-c1ccc(S(N)(=O)=O)cc1 [valdecoxib]
Average Z-value [1, 5]: 8.60

Cc1c(C(=O)Nc2ccc(N3C[C@@H](C)O[C@@H](C)C3)nc2)cccc1-c1ccc(OC(F)(F)F)cc1 [NVP-LDE225]
EC (M2 Z-score cutoff) ([3]; Homo sapiens, Macrophage, 24 h): 2.77 µM

CC1(C)C(=O)C=C[C@]2(C)[C@H]3CC[C@@]4(C)[C@H](c5ccoc5)OC(=O)[C@H]5O[C@]54[C@]3(C)C=C[C@@H]12 [7-DESACETOXY-6,7-DEHYDROGEDUNIN]
Average Z-value [1, 5]: 7.92

CC[C@H](C)C(=O)O[C@H]1C[C@@H](C)C=C2C=C[C@H](C)[C@H](CC[C@@H]3C[C@@H](O)CC(=O)O3)[C@H]21 [lovastatin]
EC (M2 Z-score cutoff) ([3]; Homo sapiens, Macrophage, 24 h): 0.442 µM

CNC(=O)c1cc(Oc2ccc(NC(=O)Nc3ccc(Cl)c(C(F)(F)F)c3)c(F)c2)ccn1 [Regorafenib]
EC (M2 Z-score cutoff) ([3]; Homo sapiens, Macrophage, 24 h): 2.88 µM

O=C(c1ccc(/C=C/c2n[nH]c3ccccc23)cc1)N1CCNCC1 [KW 2449]
EC (M2 Z-score cutoff) ([3]; Homo sapiens, Macrophage, 24 h): 2.16 µM

OC[C@H](Cc1ccccc1)Nc1nc(Oc2ccc3c(c2)CCC3)nc2c1ncn2Cc1ccc(-c2ccccc2)cc1 [QS 11]
EC (M2 Z-score cutoff) [3]: 0.2611 µM | Category [3]: M2 (6 for M2-activated macrophages)

Cc1ccc(O)c(N=Nc2ccccc2)n1 [SIB 1757]
Average Z-value [1, 4]: −7.89

O=C1c2ccccc2-c2nc3nonc3nc21 [SMER3]
EC [2]: 0.09398 µM | Category [2]: M1 (−4 for M1-activated macrophages)

COC(=O)Nc1nc2ccc(SC(C)C)cc2[nH]1 [methiazole]
activation state induced in the screen [1]: M1-activating

Evodiamine
EC [2]: 0.6799 µM

COCCNCc1ccc(-c2cc3nccc(Oc4ccc(NC(=S)NC(=O)Cc5ccc(F)cc5)cc4F)c3s2)nc1 [MGCD-265]
EC (M2 Z-score cutoff) ([3]; Homo sapiens, Macrophage, 24 h): 0.911 µM

COc1cc([C@@H]2c3cc4c(cc3[C@H](O)[C@H]3COC(=O)[C@H]23)OCO4)cc(OC)c1OC [podofilox]
activation state induced in the screen [1]: M2-activating

YK 4-279
Average Z-value [1, 4]: −7.60

Cc1nc(Nc2ncc(C(=O)Nc3c(C)cccc3Cl)s2)cc(N2CCN(CCO)CC2)n1 [Dasatinib]
EC (M2 Z-score cutoff) ([3]; Homo sapiens, Macrophage, 24 h): 0.762 µM

CC(C)C[C@H](NC(=O)CNC(=O)c1cc(Cl)ccc1Cl)B(O)O [MLN2238]
Average Z-value [1, 5]: 7.13 | EC (M2 Z-score cutoff) ([3]; Homo sapiens, Macrophage, 24 h): 3.46 µM

O=C1NC(=O)c2c1c1c3ccccc3[nH]c1c1[nH]c3ccccc3c21 [Arcyriaflavin A]
EC (M2 Z-score cutoff) [3]: 1.342 µM | Category [3]: M2 (6 for M2-activated macrophages)

c1cc(-c2cnn3cc(-c4ccc(OCCN5CCCCC5)cc4)cnc23)ccn1 [Dorsomorphin dihydrochloride]
Average Z-value [1, 5]: 11.09

O=C(c1ccc(Nc2nccc(-c3cc4ccccc4s3)n2)cc1)N1CCC(N2CCCC2)CC1 [IKK 16]
Average Z-value [1, 6]: −4.98

(−)-Epigallocatechin Gallate
Average Z-value [1, 5]: 7.36

C[C@@]12C(=O)OC(=O)[C@]1(C)[C@H]1CC[C@@H]2O1 [Cantharidin]
EC (M1 Z-score cutoff) [2]: 0.159 µM

JTE 013
EC (M2 Z-score cutoff) [3]: 0.9381 µM | Category [3]: M2 (6 for M2-activated macrophages)

OC1(c2ccc(Cl)c(C(F)(F)F)c2)CCN(CCCC(c2ccc(F)cc2)c2ccc(F)cc2)CC1 [Penfluridol]
EC (M1 Z-score cutoff) [2]: 0.169 µM

c1ccc2c(Oc3nc(Nc4ccc(N5CCOCC5)cc4)c4ncn(C5CCCCC5)c4n3)cccc2c1 [Purmorphamine]
EC (M2 Z-score cutoff) ([3]; Homo sapiens, Macrophage, 24 h): 2.35 µM

O=C(O)c1nn(Cc2ccc(Cl)cc2Cl)c2ccccc12 [LONIDAMINE]
Average Z-value [1, 5]: 6.13

CO[C@H]1C[C@H](O[C@@H]2/C(C)=C/C[C@@H]3C[C@@H](C[C@]4(CC[C@H](C)[C@@H](C5CCCCC5)O4)O3)OC(=O)[C@@H]3C=C(C)/C(=N/O)[C@H]4OC/C(=C\C=C\[C@@H]2C)[C@]43O)O[C@@H](C)[C@@H]1O [SELAMECTIN]
EC (M2 Z-score cutoff) ([3]; Homo sapiens, Macrophage, 24 h): 15 µM

CC[C@]1(O)C[C@@H]2CN(CCc3c([nH]c4ccccc34)[C@@](C(=O)OC)(c3cc4c(cc3OC)N(C)[C@H]3[C@@](O)(C(=O)OC)[C@H](OC(C)=O)[C@]5(CC)C=CCN6CC[C@]43[C@@H]65)C2)C1 [vinblastine sulfate]
activation state induced in the screen [1]: M2-activating

Cc1c[nH]c(-c2cnc(NCCNc3ccc(C#N)cn3)nc2-c2ccc(Cl)cc2Cl)n1 [CHIR-99021]
Average Z-value [1, 4]: −4.52

CC(C)c1ccc(Cn2ccc3c4c(N)nc(NC5CC5)nc4ccc32)cc1.Cl.Cl [SCH 79797 dihydrochloride]
EC [2]: 0.2194 µM | Category [2]: M1 (−4 for M1-activated macrophages)

CC[C@@]1(O)C(=O)OCc2c1cc1n(c2=O)Cc2cc3c([N+](=O)[O-])cccc3nc2-1 [Rubitecan]
Average Z-value [1, 4]: −4.17

OCCN(CCO)c1nc(N2CCCCC2)c2nc(N(CCO)CCO)nc(N3CCCCC3)c2n1 [DIPYRIDAMOLE]
Average Z-value [1, 6]: −4.41 | Average Z-value [1, 4]: −4.41

O=C1c2c(O)ccc(O)c2C(=O)c2c(NCCNCCO)ccc(NCCNCCO)c21 [MITOXANTRONE HYDROCHLORIDE]
EC (M1 Z-score cutoff) [2]: 0.559 µM

COc1cc2c(c(OC)c1OC)-c1ccc(OC)c(=O)cc1[C@@H](NC(C)=O)CC2 [colchicine]
activation state induced in the screen [1]: M2-activating

COc1cc2ncn(-c3cc(OCc4ccccc4C(F)(F)F)c(C(N)=O)s3)c2cc1OC [GW-843682X]
EC (M2 Z-score cutoff) ([3]; Homo sapiens, Macrophage, 24 h): 0.897 µM

CCCCC[C@H](O)/C=C/[C@H]1[C@H](O)CC(=O)[C@@H]1CCCCCCC(=O)O [Alprostadil]
Average Z-value [1, 4]: −4.86 | EC (M1 Z-score cutoff) [2]: 0.0562 µM
